In PMC9884426, “A phase 1 clinical trial of the repurposable acetyllysine mimetic, n-methyl-2-pyrrolidone (NMP), in relapsed or refractory multiple myeloma” (Clinical Epigenetics, 2023):

System: patients with relapsed/refractory multiple myeloma (RR–MM)
Experiment: Phase 1 dose-escalation trial of oral NMP: safety, adverse events (CTCAE 4.03), DLT, MTD
Assay type: in vivo
Protocol: This was a phase 1, open-label dose-escalation trial of orally administered NMP in patients with relapsed/refractory multiple myeloma (RR–MM). Eligible patients were ≥ 18 years old with Eastern Cooperative Oncology Group (ECOG) < 2 and histologically confirmed plasma cell myeloma defined by WHO 2008 criteria with measurable disease (defined by serum M-protein > 5 g/L, urine M-protein > 200 mg/24 h, involved serum free light chain > 100 mg/L or measurable soft tissue plasmacytoma). Patients were required to have relapsed following prior treatment and/or be refractory to or intolerant of both bortezomib and lenalidomide and must have undergone autologous stem cell transplant (unless deemed ineligible at investigator discretion). Exclusion criteria included: central nervous system involvement, active second malignancy within two years, uncontrolled medical conditions contraindicating an investigational agent due to inadequate organ function and concomitant exposure to anti-myeloma therapies.
The primary study endpoint was to determine the MTD of orally administered NMP in patients with RR–MM. Secondary endpoints included safety, PK analyses, IMWG defined response rate and exploratory immunological biomarkers. Adverse events were defined according to Common Terminology Criteria for Adverse Events (CTCAE version 4.03). Haematological DLTs were defined as grade 4 neutropenia unresponsive to G-CSF, grade 4 thrombocytopenia and febrile neutropenia. Non-haematological DLTs were grade 3 or higher and considered probably related to study drug and not attributable to disease progression and those resulting treatment delays greater than two weeks due to drug-related toxicity. Self-limited (< 24 h) gastrointestinal side effects (e.g. nausea, diarrhoea) responding to supportive measures were not classified as DLTs.
Pharmaceutical grade NMP stock solution (Ashland, Columbus, OH, USA) was diluted in ORA SWEET® SF (Medical Flavouring Systems, Vic, Australia) oral syrup vehicle and sterile water to a final concentration of 50 mg/mL and dispensed weekly in amber glass bottles for storage a room temperature. NMP was administered as a single morning dose on an empty stomach at least 30 min prior to food. Patients were dosed according to an ‘accelerated’ escalation schedule (one patient per dose level) in the absence of significant toxicity until a DLT was experienced and then in a 3 × 3 ‘standard’ dose-escalation phase. Intra-patient dose escalation at 100 mg increments was also permitted whereby the MTD had not been determined and the patient tolerated two consecutive cycles without DLT or an objective disease response. Treatment was administered daily for 28-day cycles until withdrawal from protocol due to toxicity or disease progression.

For `CN1CCCC1=O` [NMP, N-methyl-2-pyrrolidone], the “grade 5 AEs” value (13 patients) was “no grade 5 AEs”, the “Anaemia: Total” value (human, in vivo) was 23% and the “Anaemia: Total (patients)” value (human, in vivo) was 3. For the same molecule, the “Anaemia: worst grade 1 (patients)” value (human, in vivo) was 0, the “Anaemia: worst grade 2 (patients)” value (human, in vivo) was 1 and the “Anaemia: worst grade 3 (patients)” value (human, in vivo) was 2. The “Anaemia: worst grade 4 (patients)” value (human, in vivo) was 0, the “Anorexia: Total” value (human, in vivo) was 23% and the “Anorexia: Total (patients)” value (human, in vivo) was 3. The “Anorexia: worst grade 1 (patients)” value (human, in vivo) was 0, the “Anorexia: worst grade 2 (patients)” value (human, in vivo) was 3 and the “Anorexia: worst grade 3 (patients)” value (human, in vivo) was 0. For the same molecule, the “Anorexia: worst grade 4 (patients)” value (human, in vivo) was 0, the “Constipation: Total” value (human, in vivo) was 15% and the “Constipation: Total (patients)” value (human, in vivo) was 2. For the same molecule, the “Constipation: worst grade 1 (patients)” value (human, in vivo) was 1, the “Constipation: worst grade 2 (patients)” value (human, in vivo) was 1 and the “Constipation: worst grade 3 (patients)” value (human, in vivo) was 0. For the same molecule, the “Constipation: worst grade 4 (patients)” value (human, in vivo) was 0, the “Diarrhoea: Total” value (human, in vivo) was 23% and the “Diarrhoea: Total (patients)” value (human, in vivo) was 3. The “Diarrhoea: worst grade 1 (patients)” value (human, in vivo) was 2, the “Diarrhoea: worst grade 2 (patients)” value (human, in vivo) was 0 and the “Diarrhoea: worst grade 3 (patients)” value (human, in vivo) was 1. The “Diarrhoea: worst grade 4 (patients)” value (human, in vivo) was 0, the “Dizziness: Total” value (human, in vivo) was 23% and the “Dizziness: Total (patients)” value (human, in vivo) was 3. For the same molecule, the “Dizziness: worst grade 1 (patients)” value (human, in vivo) was 2, the “Dizziness: worst grade 2 (patients)” value (human, in vivo) was 1 and the “Dizziness: worst grade 3 (patients)” value (human, in vivo) was 0. The “Dizziness: worst grade 4 (patients)” value (human, in vivo) was 0, the “Dysgeusia: Total” value (human, in vivo) was 15% and the “Dysgeusia: Total (patients)” value (human, in vivo) was 2. The “Dysgeusia: worst grade 1 (patients)” value (human, in vivo) was 2, the “Dysgeusia: worst grade 2 (patients)” value (human, in vivo) was 0 and the “Dysgeusia: worst grade 3 (patients)” value (human, in vivo) was 0. The “Dysgeusia: worst grade 4 (patients)” value (human, in vivo) was 0, the “Fatigue: Total” value (human, in vivo) was 23% and the “Fatigue: Total (patients)” value (human, in vivo) was 3. For the same molecule, the “Fatigue: worst grade 1 (patients)” value (human, in vivo) was 3, the “Fatigue: worst grade 2 (patients)” value (human, in vivo) was 0 and the “Fatigue: worst grade 3 (patients)” value (human, in vivo) was 0. The “Fatigue: worst grade 4 (patients)” value (human, in vivo) was 0, the “Fever: Total” value (human, in vivo) was 15% and the “Fever: Total (patients)” value (human, in vivo) was 2. The “Fever: worst grade 1 (patients)” value (human, in vivo) was 0, the “Fever: worst grade 2 (patients)” value (human, in vivo) was 0 and the “Fever: worst grade 3 (patients)” value (human, in vivo) was 1. The “Fever: worst grade 4 (patients)” value (human, in vivo) was 1, the “Grade 3–4 adverse events, patients” value (human, in vivo) was 54% and the “Musculoskeletal pain: Total” value (human, in vivo) was 38%. For the same molecule, the “Musculoskeletal pain: Total (patients)” value (human, in vivo) was 5, the “Musculoskeletal pain: worst grade 1 (patients)” value (human, in vivo) was 2 and the “Musculoskeletal pain: worst grade 2 (patients)” value (human, in vivo) was 3. The “Musculoskeletal pain: worst grade 3 (patients)” value (human, in vivo) was 0, the “Musculoskeletal pain: worst grade 4 (patients)” value (human, in vivo) was 0 and the “Nausea: Total” value (human, in vivo) was 54%. The “Nausea: Total (patients)” value (human, in vivo) was 7, the “Nausea: worst grade 1 (patients)” value (human, in vivo) was 1 and the “Nausea: worst grade 2 (patients)” value (human, in vivo) was 6. For the same molecule, the “Nausea: worst grade 3 (patients)” value (human, in vivo) was 0, the “Nausea: worst grade 4 (patients)” value (human, in vivo) was 0 and the “Neutrophil count decreased: Total (patients)” value (human, in vivo) was 3. For the same molecule, the “Neutrophil count decreased: worst grade 1 (patients)” value (human, in vivo) was 0, the “Neutrophil count decreased: worst grade 2 (patients)” value (human, in vivo) was 1 and the “Neutrophil count decreased: worst grade 3 (patients)” value (human, in vivo) was 2. For the same molecule, the “Neutrophil count decreased: worst grade 4 (patients)” value (human, in vivo) was 0, the “Overall adverse events: Total” value (human, in vivo) was 100% and the “Overall adverse events: Total (patients)” value (human, in vivo) was 13. For the same molecule, the “Overall adverse events: worst grade 1 (patients)” value (human, in vivo) was 1, the “Overall adverse events: worst grade 2 (patients)” value (human, in vivo) was 5 and the “Overall adverse events: worst grade 3 (patients)” value (human, in vivo) was 6. For the same molecule, the “Overall adverse events: worst grade 4 (patients)” value (human, in vivo) was 1, the “Peripheral sensory neuropathy: Total” value (human, in vivo) was 23% and the “Peripheral sensory neuropathy: Total (patients)” value (human, in vivo) was 3. The “Peripheral sensory neuropathy: worst grade 1 (patients)” value (human, in vivo) was 0, the “Peripheral sensory neuropathy: worst grade 2 (patients)” value (human, in vivo) was 3 and the “Peripheral sensory neuropathy: worst grade 3 (patients)” value (human, in vivo) was 0. The “Peripheral sensory neuropathy: worst grade 4 (patients)” value (human, in vivo) was 0, the “Pruritus: Total” value (human, in vivo) was 15% and the “Pruritus: Total (patients)” value (human, in vivo) was 2. For the same molecule, the “Pruritus: worst grade 1 (patients)” value (human, in vivo) was 2, the “Pruritus: worst grade 2 (patients)” value (human, in vivo) was 0 and the “Pruritus: worst grade 3 (patients)” value (human, in vivo) was 0. The “Pruritus: worst grade 4 (patients)” value (human, in vivo) was 0, the “Renal dysfunction: Total” value (human, in vivo) was 15% and the “Renal dysfunction: Total (patients)” value (human, in vivo) was 2. The “Renal dysfunction: worst grade 1 (patients)” value (human, in vivo) was 0, the “Renal dysfunction: worst grade 2 (patients)” value (human, in vivo) was 0 and the “Renal dysfunction: worst grade 3 (patients)” value (human, in vivo) was 2. For the same molecule, the “Renal dysfunction: worst grade 4 (patients)” value (human, in vivo) was 0, the “Sore throat: Total” value (human, in vivo) was 15% and the “Sore throat: Total (patients)” value (human, in vivo) was 2. For the same molecule, the “Sore throat: worst grade 1 (patients)” value (human, in vivo) was 2, the “Sore throat: worst grade 2 (patients)” value (human, in vivo) was 0 and the “Sore throat: worst grade 3 (patients)” value (human, in vivo) was 0. For the same molecule, the “Sore throat: worst grade 4 (patients)” value (human, in vivo) was 0, the “URTI: Total” value (human, in vivo) was 15% and the “URTI: Total (patients)” value (human, in vivo) was 2. For the same molecule, the “URTI: worst grade 1 (patients)” value (human, in vivo) was 0, the “URTI: worst grade 2 (patients)” value (human, in vivo) was 2 and the “URTI: worst grade 3 (patients)” value (human, in vivo) was 0. For the same molecule, the “URTI: worst grade 4 (patients)” value (human, in vivo) was 0, the “overall DLT rate” value (human, in vivo) was 8% and the “maximum tolerated dose (MTD)” value (human, in vivo, po) was “not defined”. For the same molecule, the “dose limiting toxicity (DLT) event” value (in vivo) was “diarrhoea”.
